Measurements published in US20130190345A1, “MATRINIC ACID/MATRINE DERIVATIVES AND PREPARATION METHODS AND USES THEREOF” (priority 2010, published 2013).

Assays:
Hsc70 = assay: Detection of Hsc70 gene expression level upon action of compound on 2.2.15 cells (real-time fluorescent quantified PCR); assay type: cell-based; parameters: Hsc70 mRNA / Hsc70 down-regulation rate (%): unit not given here; settings: 2.2.15 cells; for Hsc70 inhibition rate (down-regulation of Hsc70 expression activity, expressed in relative OMT ratio): relative to OMT (= 1); for Hsc70 mRNA: down-regulation of liver cell Hsc70 gene
Experimental: 2.2.15 cells (purchased from Vertex Pharmaceutical Co., USA) in a number of 1×10^6 were inocubated to 6-well plate, cultured in a culture medium containing 10% fetal calf serum for 24 hr, the original culture medium was discarded, replaced with a culutre medium containing 400 μg/ml OMTR, which was used as control. Compounds were firstly dissolved in MEM to form 20 mg/ml mother liquid, which was diluted with culture medium when used and then applied to cells. The compounds of Examples 1-114 were separately used for treatment for 12, 24, 36 hr, then cells were harvested for extraction of RNA and DNA, then the changes of Hsc70 mRNA and HBV DNA were detected by real-time fluorescent quantified PCR.

HCV = assay: Inhibition effects of compounds on HCV in Huh7.5 cultured cell after HCV infection; assay type: cell-based; settings: HCV-infected Huh7.5 cells, 200 μg/mL, Western blotting (FIG. 7B)
Experimental: 1×10^5/ml Huh7.5 cells (purchased from Vertex Pharmaceutical Co., USA) were inoculated in an amount of 0.1 ml on 96-well culture plate, placed in an incubator with 37° C., 5% CO2 content and saturation humidity, and cultured for 24 h, HCV virus in 45 IU/cell was used to infect Huh7.5, different drug solutions (DM122) formulated with culture medium were added, and cell control and HCV infection control were set. Cultivation was continuously performed in the incubator with 37° C., 5% CO2 content and saturation humidity for 72 h, kit for RNA extraction was used to extract intracellular RNA, one-step qRT-PCR was used to determine intracellular contents of HCV and GAPDH RNA, and the inhibition effects of drug on HCV infection was analyzed. […] In comparison with the virus control group, the inhibition effects on HCV infection upon action of different drugs were analyzed. […] This experiment was repeated for 3 times, * indicated […] in comparison with control, ** indicated p<0.01 in comparison with control.

CCCN1CC2CCCN3CCCC(C1CCCC(=O)O)C23 (stereo not shown) [DM-113, N-propyl matrinic acid]
Hsc70 inhibition rate (down-regulation of Hsc70 expression activity, expressed in relative OMT ratio) (Hsc70): <10

α-interferon
anti-HCV activity (HCV nucleoprotein and Hsc70 protein levels) (HCV): capable of inhibiting HCV replication

CC(=O)OC1CC2C3CCCN4CCCC(CN2C(=O)C1O)C34 (stereo not shown) [Compound 9e, 14-hydroxyl-13-acetyloxy matrine]
Hsc70 mRNA (Hsc70): 37.1 ± 0.16

13,14-diacetyloxy matrine [Compound 9c]
Hsc70 mRNA (Hsc70): <10

O=C(O)CCCC1C2CCCN3CCCC(CN1C(=O)c1ccccc1)C23 (stereo not shown) [DM-107, N-benzoyl matrinic acid]
Hsc70 inhibition rate (down-regulation of Hsc70 expression activity, expressed in relative OMT ratio) (Hsc70): 1.04

O=C1CC(OCc2ccccc2)CC2C3CCCN4CCCC(CN12)C34 (stereo not shown) [Compound 6c, 13-benzyloxy matrine]
Hsc70 mRNA (Hsc70): 24.7 ± 0.10

N,N-dimethyl oxymatrinic acid [DM-1111]
Hsc70 inhibition rate (down-regulation of Hsc70 expression activity, expressed in relative OMT ratio) (Hsc70): −0.25

O=C(O)CCCC1C2CCCN3CCCC(CN1Cc1ccccc1)C23 (stereo not shown) [DM-108, N-benzylmatrinic acid]
Hsc70 inhibition rate (down-regulation of Hsc70 expression activity, expressed in relative OMT ratio) (Hsc70): 1.25

COc1cccc(CN2CC3CCCN4CCCC(C2CCCC(=O)O)C34)c1 (stereo not shown) [DM-142, N-(3-methoxy)benzyl matrinic acid]
Hsc70 inhibition rate (down-regulation of Hsc70 expression activity, expressed in relative OMT ratio) (Hsc70): 1.07

O=C1C=CCC2C3CCCN4CCCC(CN12)C34 (stereo not shown) [Compound 3, reference compound]
Hsc70 mRNA (Hsc70): 21.6 ± 0.13

O=C(O)CCCC1C2CCCN3CCCC(CN1C(=O)CCl)C23 (stereo not shown) [DM-104, N-chloroacetyl matrinic acid]
Hsc70 inhibition rate (down-regulation of Hsc70 expression activity, expressed in relative OMT ratio) (Hsc70): −7

O=C1CCC[C@@H]2[C@H]3CCCN4CCC[C@@H](CN12)[C@@H]34 [Compound 2, reference compound]
Hsc70 mRNA (Hsc70): 52.4 ± 0.17

O=C1CCC[C@@H]2[C@H]3CCCN4CCC[C@@H](CN12)[C@@H]34 [MT, Matrine]
Hsc70 inhibition rate (down-regulation of Hsc70 expression activity, expressed in relative OMT ratio) (Hsc70): −16

O=C1CC(C[N+](=O)[O-])CC2C3CCCN4CCCC(CN12)C34 (stereo not shown) [Compound 7a, 13-nitromethyl matrine]
Hsc70 mRNA (Hsc70): 35.8 ± 0.09

O=C(O)CCCC1C2CCCN3CCCC(CN1S(=O)(=O)c1ccccc1)C23 (stereo not shown) [DM-109, N-benzenesulfonyl matrinic acid]
Hsc70 inhibition rate (down-regulation of Hsc70 expression activity, expressed in relative OMT ratio) (Hsc70): <10

O=C(OC1CC2C3CCCN4CCCC(CN2C(=O)C1O)C34)c1ccc(F)c([N+](=O)[O-])c1 (stereo not shown) [Compound 9i, 14-hydroxyl-13-(4-fluoro-3-nitro)benzoyloxy matrine]
Hsc70 mRNA (Hsc70): 43.4 ± 0.08

Cc1cccc(OC(C)C(=O)N2CC3CCCN4CCCC(C34)C2CCCC(=O)O)c1 (stereo not shown) [DM-106, N-(2-m-methylphenoxy)propionylmatrinic acid]
Hsc70 inhibition rate (down-regulation of Hsc70 expression activity, expressed in relative OMT ratio) (Hsc70): 1.67

O=C(OC1CC2C3CCCN4CCCC(CN2C(=O)C1OC(=O)c1ccc(F)c([N+](=O)[O-])c1)C34)c1ccc(F)c([N+](=O)[O-])c1 (stereo not shown) [Compound 9d, 13,14-di(4-fluoro-3-nitro) benzoyloxy matrine]
Hsc70 mRNA (Hsc70): 30.8 ± 0.06

CCN1CC2CCCN3CCCC(C1CCCC(=O)O)C23 (stereo not shown) [DM-112, N-ethyl matrinic acid]
Hsc70 inhibition rate (down-regulation of Hsc70 expression activity, expressed in relative OMT ratio) (Hsc70): <10

CC(=O)OC1CC2C3CCCN4CCCC(CN2C(=O)C1O)C34 (stereo not shown) [Compound 9j, 14-hydroxyl-13-acetyloxy matrine]
Hsc70 mRNA (Hsc70): 54.8 ± 0.21

C=C(C)[C@H](CCC(C)(C)O)Cc1c(O)cc(OC)c2c1O[C@H](c1ccc(O)cc1O)CC2=O [DM-200, kurarinol]
Hsc70 inhibition rate (down-regulation of Hsc70 expression activity, expressed in relative OMT ratio) (Hsc70): 0.81

O=C1C=CCC2C3CCC[N+]4([O-])CCCC(CN12)C34 (stereo not shown) [Compound 4, oxidized sophocarpine]
Hsc70 mRNA (Hsc70): 15.3 ± 0.21

N-oxidized kurarinol [DM-2001]
Hsc70 inhibition rate (down-regulation of Hsc70 expression activity, expressed in relative OMT ratio) (Hsc70): −0.42

O=C(O)CCCC1C2CCC[N+]3([O-])CCCC(CN1CC1CC1)C23 (stereo not shown) [DM-1151, N-cyclopropylmethyl oxymatrinic acid]
Hsc70 inhibition rate (down-regulation of Hsc70 expression activity, expressed in relative OMT ratio) (Hsc70): 0.52

O=C(OC1CC(=O)N2C[C@@H]3CCCN4CCC[C@@H]([C@H]34)[C@H]2C1)c1ccccc1 (stereo partly shown) [Compound 6d, 13-benzoyloxy matrine]
Hsc70 mRNA (Hsc70): 51.0 ± 0.11

O=C(O)CCCC1C2CCC[N+]3([O-])CCCC(CN1Cc1ccccc1)C23 (stereo not shown) [DM-1081, N-benzyl oxymatrinic acid]
Hsc70 inhibition rate (down-regulation of Hsc70 expression activity, expressed in relative OMT ratio) (Hsc70): 1.26

O=C1CCC[C@@H]2[C@H]3CCC[N+]4([O-])CCC[C@@H](CN12)[C@@H]34 (stereo partly shown) [OMT, Oxymatrine, reference compound]
Hsc70 inhibition rate (down-regulation of Hsc70 expression activity, expressed in relative OMT ratio) (Hsc70): 1

COc1ccc(CN2CC3CCC[N+]4([O-])CCCC(C2CCCC(=O)O)C34)cc1 (stereo not shown) [DM-1221, N-(4-methoxybenzyl) oxymatrinic acid]
Hsc70 inhibition rate (down-regulation of Hsc70 expression activity, expressed in relative OMT ratio) (Hsc70): 1.34

CNC1CC(=O)N2C[C@@H]3CCCN4CCC[C@@H]([C@H]34)[C@H]2C1 (stereo partly shown) [Compound 7b, 13-methylaminomatrine]
Hsc70 mRNA (Hsc70): 40.1 ± 0.09

O=C1C(OCc2ccccc2)C(OCc2ccccc2)CC2C3CCCN4CCCC(CN12)C34 (stereo not shown) [Compound 9b, 13,14-dibenzyloxy matrine]
Hsc70 mRNA (Hsc70): 45.4 ± 0.11

COC1CC(=O)N2CC3CCCN4CCCC(C34)C2C1 (stereo not shown) [Compound 6a, 13-methoxy matrine]
Hsc70 mRNA (Hsc70): 48.6 ± 0.16

O=C(CCl)OC1CC2C3CCCN4CCCC(CN2C(=O)C1O)C34 (stereo not shown) [Compound 9f, 14-hydroxyl-13-chloroacetyloxy matrine]
Hsc70 mRNA (Hsc70): 88.2 ± 0.21

O=CN1CC2CCCN3CCCC(C1CCCC(=O)O)C23 (stereo not shown) [DM-106a, N-formylmatrinic acid]
Hsc70 inhibition rate (down-regulation of Hsc70 expression activity, expressed in relative OMT ratio) (Hsc70): −54

O=C(O)CCCC1C2CCCN3CCCC(CN1C(=O)C=Cc1ccccc1)C23 (stereo not shown) [DM-110, N-cinnamoyl matrinic acid]
Hsc70 inhibition rate (down-regulation of Hsc70 expression activity, expressed in relative OMT ratio) (Hsc70): <10

O=C(O)CCCC1C2CCCN3CCCC(CN1C(=O)CO)C23 (stereo not shown) [DM-105, N-(2-hydroxyl)acetylmatrinic acid]
Hsc70 inhibition rate (down-regulation of Hsc70 expression activity, expressed in relative OMT ratio) (Hsc70): <10

O=C(OC1CC2C3CCCN4CCCC(CN2C(=O)C1O)C34)c1ccccc1 (stereo not shown) [Compound 9h, 14-hydroxyl-13-benzoyloxy matrine]
Hsc70 mRNA (Hsc70): 34.5 ± 0.10

Cc1cccc(OCC(=O)N2CC3CCCN4CCCC(C34)C2CCCC(=O)O)c1 (stereo not shown) [DM-104a, N-(2-m-methylphenoxy)acetyl matrinic acid]
Hsc70 inhibition rate (down-regulation of Hsc70 expression activity, expressed in relative OMT ratio) (Hsc70): −2.98

O=C(O)CCCC1C2CCCN3CCCC(CN1CC1CC1)C23 (stereo not shown) [DM-115, N-cyclopropylmethyl matrinic acid]
Hsc70 inhibition rate (down-regulation of Hsc70 expression activity, expressed in relative OMT ratio) (Hsc70): −33

O=C(O)CCCC1C2CCCN3CCCC(CN1CCO)C23 (stereo not shown) [DM-117, N-(2-hydroxyl)ethyl matrinic acid]
Hsc70 inhibition rate (down-regulation of Hsc70 expression activity, expressed in relative OMT ratio) (Hsc70): 0.84

CC(Cl)C(=O)OC1CC2C3CCCN4CCCC(CN2C(=O)C1O)C34 (stereo not shown) [Compound 9g, 14-hydroxyl-13-2-chloropropionyloxy matrine]
anti-HCV activity (HCV nucleoprotein and Hsc70 protein levels) (HCV): significant activity on anti-HCV | Hsc70 mRNA (Hsc70): 48.6 ± 0.11

O=C1CCC[C@@H]2[C@H]3CCC[N+]4([O-])CCC[C@@H](CN12)[C@@H]34 (stereo partly shown) [Compound 1, reference compound]
Hsc70 mRNA (Hsc70): 55.0 ± 0.10

O=C(O)CCCC1NCC2CCC[N+]3([O-])CCCC1C23 (stereo not shown) [DM-1001, N-oxidized matrinic acid]
Hsc70 inhibition rate (down-regulation of Hsc70 expression activity, expressed in relative OMT ratio) (Hsc70): 0.92

Cc1ccc(S(=O)(=O)N2CC3CCCN4CCCC(C34)C2CCCC(=O)O)cc1 (stereo not shown) [DM-102, N-(4-methylbenzenesulfonyl) matrinic acid]
Hsc70 inhibition rate (down-regulation of Hsc70 expression activity, expressed in relative OMT ratio) (Hsc70): 1.1

COC1CC2C3CCCN4CCCC(CN2C(=O)C1OC)C34 (stereo not shown) [Compound 9a, 13,14-dimethoxy matrine]
Hsc70 mRNA (Hsc70): 39.3 ± 0.20

C[N+]1(C)CC2CCCN3CCCC(C23)C1CCCC(=O)[O-] (stereo not shown) [DM-111, N,N-dimethyl matrinic acid]
Hsc70 inhibition rate (down-regulation of Hsc70 expression activity, expressed in relative OMT ratio) (Hsc70): 0.25
